According to ChEMBL document CHEMBL4417631, “Oral peptide inhibitors of interleukin-23 receptor and their use to treat inflammatory bowel diseases” (2017):
Where a SMILES comes first, the peptide text is derived from it. [ ]: non-standard residue; d: D form. hLeu = CC(C)CC[C@H](N)C(=O)O

Target: T1, Interleukin-23 receptor (Homo sapiens, UniProt Q5VWK5)
T1 sequence (Q5VWK5 whole entry): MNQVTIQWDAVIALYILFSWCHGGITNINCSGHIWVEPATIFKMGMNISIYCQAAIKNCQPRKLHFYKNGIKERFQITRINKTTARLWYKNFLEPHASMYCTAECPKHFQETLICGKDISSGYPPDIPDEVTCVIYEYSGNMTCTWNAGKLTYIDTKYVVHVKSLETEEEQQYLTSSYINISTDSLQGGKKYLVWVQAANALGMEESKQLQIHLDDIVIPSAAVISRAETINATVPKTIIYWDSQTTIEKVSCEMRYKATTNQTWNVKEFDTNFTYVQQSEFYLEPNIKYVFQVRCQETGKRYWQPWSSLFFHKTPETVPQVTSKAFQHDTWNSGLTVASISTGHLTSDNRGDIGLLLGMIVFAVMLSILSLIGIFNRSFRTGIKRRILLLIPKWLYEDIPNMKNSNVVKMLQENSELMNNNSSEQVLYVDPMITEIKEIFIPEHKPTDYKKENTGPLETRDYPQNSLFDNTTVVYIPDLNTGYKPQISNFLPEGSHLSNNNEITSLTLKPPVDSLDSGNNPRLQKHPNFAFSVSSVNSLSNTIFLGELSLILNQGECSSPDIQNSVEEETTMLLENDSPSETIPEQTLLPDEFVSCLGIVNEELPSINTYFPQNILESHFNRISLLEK
Experiment: Inhibition of interleukin-23 binding to human interleukin-23 receptor incubated for 2 hrs by competitive binding ELISA

SMILES | IC50
CC(=O)N[C@@H](CS)C(=O)N[C@@H](CCCNC(=N)N)C(=O)N[C@H](C(=O)N[C@@H](Cc1c[nH]c2ccccc12)C(=O)N[C@@H](CCC(N)=O)C(=O)N[C@@H](CS)C(N)=O)[C@@H](C)O (Ac-CRTWQC-NH2) | > 30000 nM
CC(=O)N[C@@H](CS)C(=O)N[C@@H](CCC(N)=O)C(=O)N[C@H](C(=O)N[C@@H](Cc1c[nH]c2ccccc12)C(=O)N[C@@H](CCC(N)=O)C(=O)N[C@@H](CS)C(=O)N[C@@H](Cc1ccc(O)cc1)C(=O)N[C@@H](Cc1c[nH]c2ccccc12)C(=O)N[C@@H](CCCNC(=N)N)C(=O)N[C@@H](CCCNC(=N)N)C(=O)N[C@@H](CC(N)=O)C(=O)NCC(=O)NCCOCC(=O)N[C@H](CCCCN)C(N)=O)[C@@H](C)O | < 500 nM
N=C(N)NCCC[C@H](NC(=O)[C@H](Cc1cnc[nH]1)NC(=O)[C@H](Cc1c[nH]c2ccccc12)NC(=O)[C@H](Cc1ccc(O)cc1)NC(=O)[C@H](CS)NC(=O)[C@H](CCC(=O)O)NC(=O)[C@H](Cc1c[nH]c2ccccc12)NC(=O)[C@H](CC(N)=O)NC(=O)[C@@H]1CCCN1C(=O)[C@@H](N)CS)C(=O)N[C@@H](Cc1ccccc1)C(=O)NCC(N)=O (H-CPNWECYWHRFG-NH2) | 500 to 1000 nM
CC(=O)NCC(=O)N[C@H](CC(N)=O)C(=O)N[C@H](CCC(=O)O)C(=O)N[C@H](CC(C)C)C(=O)N[C@H](Cc1c[nH]c2ccccc12)C(=O)N[C@H](Cc1ccc(O)cc1)C(=O)N[C@H](CS)C(=O)N[C@H](CCC(N)=O)C(=O)N[C@H](Cc1c[nH]c2ccccc12)C(=O)N[C@@H](C(=O)N[C@H](CCC(N)=O)C(=O)N[C@H](CS)C(N)=O)[C@H](C)O | > 30000 nM
CC(=O)N[C@@H](CS)C(=O)N[C@@H](CCC(N)=O)C(=O)N[C@H](C(=O)N[C@@H](Cc1c[nH]c2ccccc12)C(=O)N[C@@H](CCC(N)=O)C(=O)N[C@@H](CS)C(=O)N[C@@H](Cc1ccc(O)cc1)C(=O)N[C@@H](Cc1c[nH]c2ccccc12)C(=O)N(C)[C@@H](CCCNC(=N)N)C(=O)N[C@@H](CCC(=O)O)C(=O)N[C@@H](CC(N)=O)C(=O)NCC(=O)NCCOCC(=O)N[C@H](CCCCN)C(N)=O)[C@@H](C)O | > 1000 nM
CC(C)[C@H](NC(=O)[C@@H]1Cc2ccccc2CN1C(=O)[C@H](CC(=O)O)NC(=O)[C@H](C)NC(=O)[C@@H](N)CS)C(=O)N[C@@H](CS)C(=O)N[C@@H](Cc1ccc(O)cc1)C(=O)N[C@@H](Cc1c[nH]c2ccccc12)C(=O)N[C@@H](Cc1cnc[nH]1)C(=O)N[C@H](C(=O)N[C@@H](Cc1ccccc1)C(=O)NCC(N)=O)[C@@H](C)O | > 1000 nM
CC(=O)NC(=O)[C@@H](CCCCNC(=O)COCC(=O)NCCCC[C@@H](NCCC(=O)N[C@@H](CS)C(=O)N[C@@H](C)C(=O)N[C@@H](CC(=O)O)C(=O)N[C@@H](Cc1c[nH]c2ccccc12)C(=O)N[C@H](C(=O)N[C@@H](CS)C(=O)N[C@@H](Cc1ccc(O)cc1)C(=O)N[C@@H](Cc1c[nH]c2ccccc12)C(=O)N[C@@H](Cc1cnc[nH]1)C(=O)N[C@H](C(=O)N[C@@H](Cc1ccccc1)C(=O)NCC(=O)O)[C@@H](C)O)C(C)C)C(=O)NC(C)=O)NCCC(=O)N[C@@H](CS)C(=O)N[C@@H](C)C(=O)N[C@@H](CC(=O)O)C(=O)N[C@@H](Cc1c[nH]c2ccccc12)C(=O)N[C@H](C(=O)N[C@@H](CS)C(=O)N[C@@H](Cc1ccc(O)cc1)C(=O)N[C@@H](Cc1c[nH]c2ccccc12)C(=O)N[C@@H](Cc1cnc[nH]1)C(=O)N[C@H](C(=O)N[C@@H](Cc1ccccc1)C(=O)NCC(=O)O)[C@@H](C)O)C(C)C | > 10000 nM
CC(=O)N[C@@H](CS)C(=O)N[C@@H](C)C(=O)N[C@@H](CC(=O)O)C(=O)N[C@@H](Cc1c[nH]c2ccccc12)C(=O)N[C@H](C(=O)N[C@@H](CS)C(=O)N[C@@H](Cc1ccc(O)cc1)C(=O)N[C@@H](Cc1c[nH]c2ccccc12)C(=O)N[C@@H](Cc1cnc[nH]1)C(=O)N[C@H](C(=O)N[C@@H](Cc1ccccc1)C(=O)NCC(=O)N[C@@H](C)C(=O)N[C@@H](C)C(=O)N[C@H](CCCCN)C(=O)O)[C@@H](C)O)C(C)C | < 500 nM
CC(=O)N[C@@H](CS)C(=O)N[C@@H](CCCNC(=N)N)C(=O)N[C@@H](CC(=O)O)C(=O)N[C@@H](Cc1c[nH]c2ccccc12)C(=O)N[C@@H](CCC(N)=O)C(=O)N[C@@H](CS)C(=O)N[C@@H](Cc1ccc(O)cc1)C(=O)N[C@@H](Cc1c[nH]c2ccccc12)C(=O)N[C@H](CCCNC(=N)N)C(=O)N[C@H](CCCCN)C(=O)N[C@@H](Cc1ccccc1)C(=O)NCC(=O)NCCOCCC(=O)N[C@H](CCCCN)C(N)=O | > 1000 nM
CC(=O)N[C@@H](CS)C(=O)N[C@@H](CCC(N)=O)C(=O)N[C@H](C(=O)NCC(=O)N[C@@H](CCC(N)=O)C(=O)N[C@@H](CS)C(=O)N[C@@H](Cc1ccc(O)cc1)C(=O)N[C@@H](Cc1c[nH]c2ccccc12)C(=O)N[C@@H](CCC(C)C)C(=O)N[C@@H](CCC(=O)O)C(=O)N[C@@H](CC(N)=O)C(=O)NCC(N)=O)[C@@H](C)O (Ac-CQTGQCYW[hLeu]ENG-NH2) | > 10000 nM
CC(=O)N[C@@H](CS)C(=O)N(C)[C@@H](CCCCN)C(=O)N[C@H](C(=O)N[C@@H](Cc1c[nH]c2ccccc12)C(=O)N[C@@H](CCC(N)=O)C(=O)N[C@@H](CS)C(=O)N[C@@H](Cc1ccc(O)cc1)C(=O)N[C@@H](Cc1c[nH]c2ccccc12)C(=O)N[C@@H](CCCNC(=N)N)C(=O)N[C@H](C(=O)N[C@@H](Cc1ccccc1)C(=O)NCC(=O)NCCOCC(=O)N[C@H](CCCCN)C(N)=O)C(C)C)[C@@H](C)O | 80 nM
CC(C)[C@H](NC(=O)[C@H](Cc1c[nH]c2ccccc12)NC(=O)[C@H](CC(=O)O)NC(=O)[C@H](C)NC(=O)[C@H](CS)NC(=O)[C@H](CO)NC(=O)CCN)C(=O)N[C@@H](CS)C(=O)N[C@@H](Cc1ccc(O)cc1)C(=O)N[C@@H](Cc1c[nH]c2ccccc12)C(=O)N[C@@H](Cc1cnc[nH]1)C(=O)N[C@H](C(=O)N[C@@H](Cc1ccccc1)C(=O)NCC(=O)O)[C@@H](C)O | > 1000 nM
CC(=O)N[C@@H](CS)C(=O)N[C@@H](C)C(=O)N[C@@H](CC(=O)O)C(=O)N[C@@H](Cc1c[nH]c2ccccc12)C(=O)N[C@H](C(=O)N[C@@H](CS)C(=O)N[C@@H](Cc1ccc(O)cc1)C(=O)N[C@@H](Cc1c[nH]c2ccccc12)C(=O)N[C@@H](Cc1cnc[nH]1)C(=O)N[C@@H](CCC(=O)O)C(=O)N[C@@H](Cc1cnc[nH]1)C(=O)N[C@@H](CO)C(=O)N[C@@H](CCC(=O)O)C(=O)N[C@@H](CCCNC(=N)N)C(=O)N[C@H](C(=O)NCC(N)=O)C(C)C)C(C)C (Ac-CADWVCYWHEHSERVG-NH2) | 500 to 1000 nM
CC(C)[C@H](NC(=O)[C@H](Cc1c[nH]c2ccccc12)NC(=O)[C@H](CC(=O)O)NC(=O)[C@H](C)NC(=O)[C@@H](N)CS)C(=O)N[C@@H](CS)C(=O)N[C@@H](Cc1ccc(O)cc1)C(=O)N[C@@H](Cc1c[nH]c2ccccc12)C(=O)N[C@@H](Cc1cnc[nH]1)C(=O)N[C@H](C(=O)N[C@@H](Cc1ccccc1)C(N)=O)[C@@H](C)O | > 1000 nM
CC(=O)N[C@@H](CS)C(=O)N[C@@H](C)C(=O)N[C@@H](CC(=O)O)C(=O)N[C@@H](Cc1c[nH]c2ccccc12)C(=O)N[C@H](C(=O)N[C@@H](CS)C(=O)N[C@@H](Cc1ccc(O)cc1)C(=O)N[C@H](C(=O)N[C@@H](CCCN)C(=O)N[C@@H](CN)C(=O)N[C@@H](Cc1ccccc1)C(=O)NCC(=O)NCCOCC(=O)N[C@H](CCCCN)C(N)=O)C1CCC(c2ccccc2)CC1)C(C)C (stereo not given in full) | > 3000 nM
CC(=O)NCC(=O)NCC(=O)N[C@H](C(=O)N[C@@H](CCC(=O)O)C(=O)N[C@@H](CS)C(=O)N[C@@H](CC(N)=O)C(=O)N[C@@H](CC(=O)O)C(=O)N[C@@H](Cc1c[nH]c2ccccc12)C(=O)N[C@@H](CCC(N)=O)C(=O)N[C@@H](CS)C(=O)N[C@@H](Cc1ccc(O)cc1)C(=O)N[C@@H](Cc1c[nH]c2ccccc12)C(=O)N[C@@H](Cc1cnc[nH]1)C(=O)N[C@H](C(=O)N[C@@H](Cc1ccccc1)C(=O)NCC(N)=O)[C@@H](C)O)C(C)C (Ac-GGVECNDWQCYWHTFG-NH2) | 500 to 1000 nM
CC(C)[C@H](NC(=O)[C@H](Cc1c[nH]c2ccccc12)NC(=O)[C@H](CC(=O)O)NC(=O)[C@H](C)NC(=O)[C@@H](N)CS)C(=O)N[C@@H](CS)C(=O)N[C@@H](Cc1ccc(O)cc1)C(=O)N[C@@H](Cc1cccc2ccccc12)C(=O)N[C@@H](Cc1cnc[nH]1)C(=O)N[C@H](C(=O)N[C@H](Cc1ccccc1)C(=O)O)[C@@H](C)O | > 1000 nM
C[C@@H](O)[C@H](NC(=O)[C@@H](N)CS)C(=O)N[C@@H](CC(=O)O)C(=O)N[C@@H](Cc1c[nH]c2ccccc12)C(=O)N[C@@H](CCCCN)C(=O)N[C@@H](CS)C(=O)N[C@@H](Cc1ccc(O)cc1)C(=O)N[C@@H](Cc1c[nH]c2ccccc12)C(=O)N[C@@H](Cc1cnc[nH]1)C(=O)N[C@@H](CCC(=O)O)C(=O)N[C@@H](Cc1ccccc1)C(=O)NCC(N)=O (H-CTDWKCYWHEFG-NH2) | 500 to 1000 nM
CC(=O)N[C@@H](CS)C(=O)N[C@@H](CCC(N)=O)C(=O)N[C@H](C(=O)N[C@@H](Cc1c[nH]c2ccccc12)C(=O)N[C@@H](CCC(N)=O)C(=O)N[C@@H](CS)C(=O)N[C@@H](Cc1ccc(O)cc1)C(=O)N[C@H](CC(=O)N[C@@H](CCCNC(=N)N)C(=O)N[C@H](C(=O)N[C@@H](CC(N)=O)C(=O)NCC(=O)NCCOCC(=O)N[C@H](CCCCN)C(N)=O)C(C)C)Cc1ccccc1)[C@@H](C)O | > 30000 nM
CC(=O)N[C@@H](CS)C(=O)N[C@@H](C)C(=O)N[C@@H](CC(=O)O)C(=O)N[C@@H](Cc1c[nH]c2ccccc12)C(=O)N[C@H](C(=O)N[C@@H](CS)C(=O)N[C@@H](Cc1ccc(O)cc1)C(=O)N[C@@H](Cc1c[nH]c2ccccc12)C(=O)N[C@@H](Cc1cnc[nH]1)C(=O)N[C@H](C(=O)N[C@@H](Cc1ccccc1)C(=O)NCC(=O)NCCOCCC(=O)N[C@H](CCCNC(=N)N)C(=O)O)[C@@H](C)O)C(C)C | < 500 nM
